The values below are quoted from earlier work in PMC5007443, “TNIK inhibition abrogates colorectal cancer stemness” (Nature Communications, 2016).

In one series the test system is TNIK. On the set-up: method as in PMID 23232060. The following applies: read-out: IC50, enzyme activity of TNIK; cited from earlier work.
A further series relates to Wnt signal. On the set-up: method as in PMID 23232060. Conditions: read-out: IC50, Wnt signal-inhibitory effects; cited from earlier work.
In another series the test system is lung cancer cells. On the set-up: method as in PMID 25337707. Conditions: cited from earlier work.

Broadly, the IC50 is the midpoint of a concentration-inhibition curve. For `COc1ccc(C#N)cc1-c1ccnc(Nc2ccc(N3CCOCC3)c(OC)c2)c1` [Compound 9, 4-methoxy-3-(2-(3-methoxy-4-morpholinophenylamino)pyridin-4-yl)benzonitrile], the half-maximal inhibitory concentration (IC50) in the series with TNIK is 8 nM; with Wnt signal it was over 2000 nM.

For `Cc1ccc(C(=O)Nc2sc(Nc3ccccc3)nc2C(N)=O)cc1` [NCB-0005], in the series on lung cancer cells, the “EMT of lung cancer cells induced by TGF-β1” value is listed as “inhibit”.
